Entries after “also recorded” stand apart in the source; their conditions may differ.
Experiments:
[1] = test system: advanced solid tumors or B cell lymphoma; assay: Phase 1 tumor assessments (anti-tumor activity); type: in vivo, human
Description: (§1) PK/PD relationship was analyzed. Tumor assessments were performed every 8 weeks.

clinical = conditions: human, in vivo; for AUC(0-t): AUC0-12 hr
Description: Blood samples for PK and skin biopsies for PD analysis were collected. PD samples were stained with H3K27me3 specific antibody and percent change from baseline in H3K27Me3 positive cells was determined. PK/PD relationship was analyzed. Tumor assessments were performed every 8 weeks.
Doses administered were 100 mg BID as a suspension (n=3) or tablet (n=3) formulation and 200, 400, 800 and 1600 mg as tablet formulation.

[2] = test system: H3K27Me3 positive cells in the epidermis; assay: Skin biopsy H3K27Me3 immunohistochemistry and PK/PD model; type: in vivo, human
Description: as §1
Skin biopsies were collected predose (Cycle 1, Day 1) and predose prior to Cycle 2, Day 1 for immunohistochemistry analysis.
An inhibitory Emax PK/PD model was fit to describe this relationship.

[3] = type: in vivo; conditions: dose escalation up to 1600 mg BID
Description: Phase 1 dose escalation is being performed to determine maximum tolerated dose (MTD) safety, PK, PD, and preliminary anti-tumor activity in patients (“pts”) with B cell lymphoma or advanced solid tumors.
as §1

ABC lymphoma cell lines = assay: Combination with drugs that target the BCR/PI3K pathways in ABC lymphoma cell lines; type: cell-based

Structure (SMILES): CCN(c1cc(-c2ccc(CN3CCOCC3)cc2)cc(C(=O)NCc2c(C)cc(C)[nH]c2=O)c1C)C1CCOCC1 [EPZ-6438]
- Maximum tumor change ([1]; 100 mg dose group): −78%
- Maximum tumor change ([1]; 200mg dose group): −87%
- Partial responses in evaluable NHL pts ([1]; 1 transformed DLBCL, 100mg BID, and 1 PMBL, 200mg BID): 2 of 4
- AUC0-12 hr (clinical; 100 mg): 337 ng·h/mL
- Tmax (clinical; 100 mg): 1.0 h
- AUC(0-t) (clinical; 100 mg): 467 ng·h/mL
- Tmax (clinical; 100 mg, Tmax): 0.5 h
- AUC(0-t) (clinical; 200 mg): 1250 ng·h/mL
- Cmax (clinical; 200 mg, Cmax): 363 ng/mL
- Tmax (clinical; 200 mg, Tmax): 1 h
- half-life (clinical; 200 mg, t1/2): 3.42 h
- AUC(0-t) (clinical; 400 mg): 1720 ng·h/mL
- Cmax (clinical; 400 mg, Cmax): 476 ng/mL
- Tmax (clinical; 400 mg, Tmax): 2 h
- half-life (clinical; 400 mg, t1/2): 2.88 h
- AUC (clinical; 800 mg): 4550 ng·h/mL
- AUC(0-t) (clinical; 800 mg): 7800 ng·h/mL
- Cmax (clinical; 800 mg, Cmax): 1730 ng/mL
- Tmax (clinical; 800 mg, Tmax): 2 h
- half-life (clinical; 800 mg, t1/2): 3.81 h
- Cmax (clinical; 1600 mg): 4125 ng/mL
- AUC(0-t) (clinical; 1600 mg): 18900 ng·h/mL
- Tmax (clinical; 1600 mg, Tmax): 2 h
- half-life (clinical; 1600 mg, t1/2): 3.67 h
- half-life (clinical; mean EPZ-6438 terminal half-life (t½)): 3 to 6 h
- Tmax (clinical; po, Tmax): 1 to 2 h
- half-life (clinical; po, half-life): ~4 h
- half-life (clinical; terminal half-life (t½)): 3 to 6 h
- maximal inhibition (Imax) of H3K27Me3 positive cells in skin ([2]; inhibitory Emax PK/PD model estimate): −44.4%
- exposure associated with 50% of maximal inhibition (IC50) ([2]; inhibitory Emax PK/PD model estimate, AUC exposure): 487 ng·h/mL
- exposure associated with 90% of maximal inhibition (IC90) ([2]; model predicted, AUC exposure): 4421 ng·h/mL
- H3K27Me3 positive cells in skin ([2]; skin biopsies, Cycle 2 Day 1 vs predose baseline): exposure-related decrease; also recorded: consistent decrease
- MTD [3]: has not been reached
- effect of combination with drugs that target the BCR/PI3K pathways (ABC lymphoma cell lines): no effect observed
